# In patent US20240025891A1 (Celgene Corporation, priority 2020, published 2024):
# Tested on: Onchocerca gutturosa adult male worms
# Test: Onchocerciasis in vitro screening model Onchocerca gutturosa (worm motility score and MTT/formazan colorimetry)
# Settings: Onchocerca gutturosa, read-out: O. gutt Act class
# Experimental: Onchocerciasis: In Vitro Screening Model Onchocerca gutturosa
# Parasite and cell cultures. Onchocerca gutturosa adult male worms were obtained by dissection from the nuchal ligament connective tissues of naturally infected cattle, from Gambia, W Africa.
# The worms were maintained for at least 24 h in culture before use in Eagles Minimum Essential Medium with Earl's Salts (Gibco, UK)+10% heat inactivated new born calf serum (Gibco, UK)+antibiotic cover of 200 units/ml penicillin, 200 μg/ml streptomycin and 0.5 μg/ml amphotericin B (Sigma, UK). Only normally active specimens were used in the test. All cultures and assays were conducted at 37° C. under an atmosphere of 5% CO2 in air.
# Drug sensitivity assays. Compound stock solutions were prepared in 100% DMSO unless otherwise indicated and diluted into the medium. Any unused compound stocks were stored at −20° C. Assays were performed in sterile 24-well (2 ml) plates (Falcon, UK).
# Worms were then transferred individually to each well of the plate using fine forceps. Worm viability was assessed using 2 parameters: • The measurement of mean worm motility scores on a scale of 0 (immotile) to 10 (maximum) every 24 h, terminating at 120 h, using an Olympus inverted microscope. • The biochemical evaluation of worm viability using MTT/formazan colorimetry. The MTT assay was carried out after the last motility reading (120 h). Single intact worms were placed in each well of a 48-well plate (Falcon, UK) containing 0.5 ml of a solution consisting of 0.5 mg/ml MTT (Sigma UK) in phosphate buffered saline, and then incubated for 30 min at 37° C. The worms were removed, blotted carefully, and individually transferred to separate wells of a 96-well microtiter plate, each containing 200 μl of DMSO to solubilize the formazan. After 1 h the plate was gently agitated to disperse the color evenly and the absorbance value (optical density) of the resulting formazan solution was determined at 490 nm using a multi-well scanning spectrophotometer (Elisa-reader, Dynatech, UK). Inhibition of formazan formation was correlated with worm damage or death.
# Primary screen. New compounds were usually tested at 1.25×10^−5 M. Also expressed in μg/ml.
# Secondary screen. […] Serial 1 in 4 drug dilutions was carried out to find activity endpoint and EC50 values for motility reduction and inhibition of formazan formation were produced. EC50 values were determined using Excel or Origin V7 scientific graphing and data analysis software.
row,SMILES,IC50 [nM]
1,"Cc1ccc(-c2csc(Nc3cc(C)ccn3)n2)nc1 [Example 1, N-(4-Methylpyridin-2-yl)-4-(5-methylpyridin-2-yl)thiazol-2-amine]",< 200
2,Cc1ccnc(Nc2nc(-c3cccc(C)n3)cs2)c1 [Example 2],200 to 500
3,COc1cccnc1-c1csc(Nc2cc(C)ccn2)n1 [Example 7],500 to 5000
4,CCOc1cccc(-c2csc(Nc3ncccc3C)n2)n1 [Example 71],500 to 5000
5,"CCOc1cccnc1-c1csc(Nc2cc(C)ccn2)n1 [Example 72, 4-(3-ethoxypyridin-2-yl)-N-(4-methylpyridin-2-yl)thiazol-2-amine]",< 200
6,"CC(=O)N(C)c1cc(C(F)(F)F)cnc1Nc1nc(-c2cc(OC3COC3)ccn2)cs1 [Example 73, N-methyl-N-(2-(4-(4-(oxetan-3-yloxy)pyridin-2-yl)thiazol-2-ylamino)-5-(trifluoromethyl)pyridin-3-yl)acetamide]",200 to 500
7,"CCOc1cnc(-c2csc(Nc3cc(C)ccn3)n2)c(C)c1 [Example 74, 4-(5-ethoxy-3-methylpyridin-2-yl)-N-(4-methylpyridin-2-yl)thiazol-2-amine]",< 200
8,"CCOc1cnc(-c2csc(Nc3ncccc3C)n2)c(C)c1 [Example 75, 4-(5-ethoxy-3-methylpyridin-2-yl)-N-(3-methylpyridin-2-yl)thiazol-2-amine]",< 200
9,"CC(=O)N(C)c1cc(C(F)(F)F)cnc1Nc1nc(-c2cc3c(cn2)N(C)CC3)cs1 [Example 76, N-methyl-N-(2-(4-(1-methyl-2,3-dihydro-1H-pyrrolo[2,3-c]pyridin-5-yl)thiazol-2-ylamino)-5-(trifluoromethyl)pyridin-3-yl)acetamide]",< 200
10,"CCOc1cccnc1-c1csc(Nc2ncccc2C)n1 [Example 77, 4-(3-ethoxypyridin-2-yl)-N-(3-methylpyridin-2-yl)thiazol-2-amine]",< 200
11,"CCOc1cccc(-c2csc(Nc3cc(C)ccn3)n2)n1 [Example 78, 4-(6-ethoxypyridin-2-yl)-N-(4-methylpyridin-2-yl)thiazol-2-amine]",500 to 5000
12,"CCOc1ccc(-c2csc(Nc3ncc(F)cc3C)n2)nc1 [Example 79, 4-(5-ethoxypyridin-2-yl)-N-(5-fluoro-3-methylpyridin-2-yl)thiazol-2-amine]",< 200
13,"CSc1ccc(-c2csc(Nc3ncccc3C)n2)nc1 [Example 80, N-(3-methylpyridin-2-yl)-4-(5-(methylthio)pyridin-2-yl)thiazol-2-amine]",< 200
14,"CCOc1ccc(-c2csc(Nc3ccc(C)cn3)n2)nc1 [Example 81, 4-(5-ethoxypyridin-2-yl)-N-(5-methylpyridin-2-yl)thiazol-2-amine]",< 200
15,"CC(=O)N(C)c1cc(C(F)(F)F)cnc1Nc1nc(-c2cc(OC(C)C)ccn2)cs1 [Example 82, N-(2-(4-(4-isopropoxypyridin-2-yl)thiazol-2-ylamino)-5-(trifluoromethyl)pyridin-3-yl)-N-methylacetamide]",< 200
16,"CCOc1ccc(-c2csc(Nc3ncccc3C3CC3)n2)nc1 [Example 83, N-(3-cyclopropylpyridin-2-yl)-4-(5-ethoxypyridin-2-yl)thiazol-2-amine]",200 to 500
17,"CCOc1ccc(-c2csc(Nc3ncc(C(F)(F)F)cc3C)n2)nc1 [Example 84, 4-(5-ethoxypyridin-2-yl)-N-(3-methyl-5-(trifluoromethyl)pyridin-2-yl)thiazol-2-amine]",200 to 500
18,"CCOc1ccc(-c2csc(Nc3ccc(Cl)cn3)n2)nc1 [Example 85, N-(5-chloropyridin-2-yl)-4-(5-ethoxypyridin-2-yl)thiazol-2-amine]",200 to 500
19,"CCOc1ccc(-c2csc(Nc3nc(C)ccc3C)n2)nc1 [Example 86, N-(3,6-dimethylpyridin-2-yl)-4-(5-ethoxypyridin-2-yl)thiazol-2-amine]",< 200
20,"CCOc1ccc(Nc2nc(-c3ccc(OCC)cn3)cs2)nc1 [Example 87, N,4-bis(5-ethoxypyridin-2-yl)thiazol-2-amine]",< 200
21,"CCOc1ccc(-c2csc(Nc3ncc(C)cc3C)n2)nc1 [Example 88, N-(3,5-dimethylpyridin-2-yl)-4-(5-ethoxypyridin-2-yl)thiazol-2-amine]",< 200
22,"Cc1ccnc(Nc2nc(-c3ccc(Cl)cn3)cs2)c1 [Example 89, 4-(5-chloropyridin-2-yl)-N-(4-methylpyridin-2-yl)thiazol-2-amine]",200 to 500
23,"CCOc1ccc(-c2csc(Nc3cccc(C)n3)n2)nc1 [Example 90, 4-(5-ethoxypyridin-2-yl)-N-(6-methylpyridin-2-yl)thiazol-2-amine]",< 200
24,"CCOc1ccc(-c2csc(Nc3cc(C)ccn3)n2)nc1 [Example 91, 4-(5-ethoxypyridin-2-yl)-N-(4-methylpyridin-2-yl)thiazol-2-amine]",< 200

row,SMILES,IC50 [nM]
1,"Cc1ccnc(Nc2nc(-c3ncccc3C#N)cs2)c1 [Example 92, 2-(2-(4-methylpyridin-2-ylamino)thiazol-4-yl)nicotinonitrile]",< 200
2,"CC(=O)N(C)c1cc(C(F)(F)F)cnc1Nc1nc(-c2ccc(OC(C)C)cn2)cs1 [Example 93, N-(2-(4-(5-isopropoxypyridin-2-yl)thiazol-2-ylamino)-5-(trifluoromethyl)pyridin-3-yl)-N-methylacetamide]",< 200
3,"Cc1cccnc1Nc1nc(-c2ccc(Cl)cn2)cs1 [Example 94, 4-(5-chloropyridin-2-yl)-N-(3-methylpyridin-2-yl)thiazol-2-amine]",< 200
4,"CCOc1ccc(-c2csc(Nc3ccc(C(F)(F)F)cn3)n2)nc1 [Example 95, 4-(5-ethoxypyridin-2-yl)-N-(5-(trifluoromethyl)pyridin-2-yl)thiazol-2-amine]",< 200
5,"COc1ccnc(-c2csc(Nc3ncc(C(F)(F)F)cc3N(C)C(C)=O)n2)c1 [Example 96, N-(2-(4-(4-methoxypyridin-2-yl)thiazol-2-ylamino)-5-(trifluoromethyl)pyridin-3-yl)-N-methylacetamide]",200 to 500
6,"Cc1cc(C(F)(F)F)cnc1Nc1nc(-c2cc3c(cn2)N(C)CC3)cs1 [Example 97, 4-(1-methyl-2,3-dihydro-1H-pyrrolo[2,3-c]pyridin-5-yl)-N-(3-methyl-5-(trifluoromethyl)pyridin-2-yl)thiazol-2-amine]",< 200
7,"Cc1ccnc(Nc2nc(-c3cc(OC4CN(C)C4)ccn3)cs2)c1 [Example 98, 4-(4-(1-methylazetidin-3-yloxy)pyridin-2-yl)-N-(4-methylpyridin-2-yl)thiazol-2-amine]",< 200
8,"Cc1ccnc(-c2csc(Nc3ncccc3-c3ccccc3)n2)c1 [Example 99, 4-(4-methylpyridin-2-yl)-N-(3-phenylpyridin-2-yl)thiazol-2-amine]",500 to 5000
9,"Cc1cccnc1-c1csc(Nc2cc(-c3ccccc3)ccn2)n1 [Example 100, 4-(3-methylpyridin-2-yl)-N-(4-phenylpyridin-2-yl)thiazol-2-amine]",< 200
10,"Cc1ccnc(Nc2nc(-c3cc(-c4ccccc4)ccn3)cs2)c1 [Example 101, N-(4-methylpyridin-2-yl)-4-(4-phenylpyridin-2-yl)thiazol-2-amine]",< 200
11,"Cc1ccnc(Nc2nc(-c3cc(OC4COC4)ccn3)cs2)c1 [Example 102, N-(4-methylpyridin-2-yl)-4-(4-(oxetan-3-yloxy)pyridin-2-yl)thiazol-2-amine]",< 200
12,"Cc1ccnc(Nc2nc(-c3ncccc3-c3ccccc3)cs2)c1 [Example 103, N-(4-methylpyridin-2-yl)-4-(3-phenylpyridin-2-yl)thiazol-2-amine]",< 200
13,"FC(F)(F)c1ccnc(Nc2nc(-c3ccc(OC4CCOCC4)cn3)cs2)c1 [Example 104, 4-(5-(tetrahydro-2H-pyran-4-yloxy)pyridin-2-yl)-N-(4-(trifluoromethyl)pyridin-2-yl)thiazol-2-amine]",< 200
14,"Cc1sc(Nc2cc(C(=O)NCC(F)(F)F)ccn2)nc1-c1ccc(OC2CCOCC2)cn1 [Example 106, 2-(5-methyl-4-(5-(tetrahydro-2H-pyran-4-yloxy)pyridin-2-yl)thiazol-2-ylamino)-N-(2,2,2-trifluoroethyl) isonicotinamide]",200 to 500
15,"Cc1ccnc(Nc2nc(-c3ncccn3)cs2)c1 [Example 107, N-(4-methylpyridin-2-yl)-4-(pyrimidin-2-yl)thiazol-2-amine]",500 to 5000
16,"CC(=O)N(C)c1cc(C(F)(F)F)cnc1Nc1nc(-c2cc3n(n2)CCC3)cs1 [Example 108, N-(2-(4-(5,6-dihydro-4H-pyrrolo[1,2-b]pyrazol-2-yl)thiazol-2-ylamino)-5-(trifluoromethyl)pyridin-3-yl)-N-methylacetamide]",< 200
17,"Fc1ccc(-c2csc(Nc3cc(C(F)(F)F)c(Br)cn3)n2)nc1 [Example 109, N-(5-bromo-4-(trifluoromethyl)pyridin-2-yl)-4-(5-fluoropyridin-2-yl)thiazol-2-amine]",200 to 500
18,"Cc1ccnc(Nc2nc(-c3ncccc3C)c(-c3ccccc3)s2)c1 [Example 110, 4-(3-methylpyridin-2-yl)-N-(4-methylpyridin-2-yl)-5-phenylthiazol-2-amine]",500 to 5000
19,"Cc1cccnc1Nc1cnc(-c2ccc(OC3CCOCC3)cn2)s1 [Example 111, N-(3-methylpyridin-2-yl)-2-(5-(tetrahydro-2H-pyran-4-yloxy)pyridin-2-yl)thiazol-5-amine]",< 200
20,"c1ccc(-c2ccnc(Nc3cnc(-c4ccccn4)s3)c2)cc1 [Example 112, N-(4-phenylpyridin-2-yl)-2-(pyridin-2-yl)thiazol-5-amine]",200 to 500
21,"COc1ccc(-c2ncc(Nc3cc(OC(C)C)ccn3)s2)nc1 [Example 113, N-(4-isopropoxypyridin-2-yl)-2-(5-methoxypyridin-2-yl)thiazol-5-amine]",500 to 5000
22,"Cc1ccnc(Nc2cnc(-c3ncccc3C)s2)c1 [Example 114, 2-(3-methylpyridin-2-yl)-N-(4-methylpyridin-2-yl)thiazol-5-amine]",< 200
23,"Cc1ccnc(Nc2csc(-c3ncccc3C)n2)c1 [Example 115, 2-(3-methylpyridin-2-yl)-N-(4-methylpyridin-2-yl)thiazol-4-amine]",500 to 5000
